In US20070128217A1 (priority 2003, published 2007):

Legend:
[1] = system: rabbit serum obtained by immunizing a rabbit with the SARS-CoV strain Frankfurt 1; assay type: binding; design: Binding of a rabbit serum to linear peptides / Binding of a rabbit serum to looped peptides / Rabbit serum linear peptides / Rabbit serum looped peptides / Binding of a rabbit serum to linear peptides of protein N of SARS-CoV Urbani (Rabbit serum linear peptides) / Binding of a rabbit serum to looped/cyclic peptides of protein N of SARS-CoV Urbani (Rabbit serum looped peptides): unit not given here
[2] = system: control sera (pooled serum of ten healthy LUMC hospital workers; commercial negative donor pooled serum from the Dutch bloodbank); assay type: binding, human; design: Binding of Control serum LUMC to linear peptides / Binding of Control serum Blood-bank to linear peptides / Binding of Control serum LUMC to looped peptides / Binding of Control Serum Blood-Bank to Looped peptides / Binding of Control serum LUMC to linear peptides of the protein M of SARS-CoV Urbani / Binding of Control serum Blood-bank to linear peptides of the protein M of SARS-CoV Urbani / Binding of Control serum LUMC to looped peptides of the protein M of SARS-CoV Urbani / Binding of Control Serum Blood-Bank to Looped peptides of the protein M of SARS-CoV Urbani: unit not given here
[3] = system: antibodies in sera from SARS patients (sera 1a, 1b, 2, 6, 37, 62, London, SARS-yellow, SARS-green); assay type: binding, human; design: Binding of serum 6 to linear peptides of protein X1 of SARS-CoV Urbani / Binding of serum 37 to linear peptides of protein X1 of SARS-CoV Urbani / Binding of serum 6 to looped/cyclic peptide (PEPSCAN-ELISA) / Binding of serum 37 to looped/cyclic peptide (PEPSCAN-ELISA) / Binding of serum 37 to looped/cyclic peptides of protein X1 of SARS-CoV Urbani / Binding of serum 6 to linear peptides of protein X2 / Binding of serum 37 to linear peptides of protein X2 / Binding of serum 37 to looped/cyclic peptides of protein X2 of SARS-CoV Urbani / Binding of serum 6 to linear peptides of protein M of SARS-CoV Urbani / Binding of serum 37 to linear peptides of protein M of SARS-CoV Urbani / Binding of serum 6 to looped/cyclic peptides of protein M of SARS-CoV Urbani / Binding of serum 37 to looped/cyclic peptides of protein M of SARS-CoV Urbani / Binding of serum 6 to linear peptides of protein X3 of SARS-CoV Urbani / Binding of serum 37 to linear peptides of protein X3 of SARS-CoV Urbani / Binding of serum 37 to looped/cyclic peptides of protein X3 of SARS-CoV Urbani / Binding of serum 6 to linear peptides of protein X4 of SARS-CoV Urbani / Binding of serum 37 to linear peptides of protein X4 of SARS-CoV Urbani / Binding of serum 37 to looped/cyclic peptides of protein X4 of SARS-CoV Urbani / Binding of serum 6 to linear peptides of protein X5 of SARS-CoV Urbani / Binding of serum 37 to linear peptides of protein X5 of SARS-CoV Urbani / Binding of serum 37 to looped/cyclic peptides of protein X5 of SARS-CoV Urbani / Binding of serum 6 to linear peptides of protein N of SARS-CoV Urbani / Binding of serum 37 to linear peptides of protein N of SARS-CoV Urbani / Binding of serum 6 to linear peptide (PEPSCAN-ELISA) / Binding of serum 1a to looped/cyclic peptides of protein N of SARS-CoV Urbani / Binding of serum 1b to looped/cyclic peptides of protein N of SARS-CoV Urbani / Binding of serum 2 to looped/cyclic peptides of protein N of SARS-CoV Urbani / Binding of serum 6 to looped/cyclic peptides of protein N of SARS-CoV Urbani / Binding of serum 37 to looped/cyclic peptides of protein N of SARS-CoV Urbani / Binding of serum 62 to looped/cyclic peptides of protein N of SARS-CoV Urbani / Binding of serum London to looped/cyclic peptides of protein N of SARS-CoV Urbani / Binding of serum SARS-green to looped/cyclic peptides of protein N of SARS-CoV Urbani: unit not given here
[4] = system: recombinant human anti-SARS-CoV antibody 03-018; assay type: binding; design: Binding of antibody 03-018 to linear peptides of the N protein of SARS-CoV Urbani / Binding of antibody 03-018 to looped/cyclic peptides of the N protein of SARS-CoV Urbani: unit not given here

Sequence	Binding of a rabbit serum to linear peptides of protein N of SARS-CoV Urbani (Rabbit serum linear peptides) [1]	Binding of a rabbit serum to looped/cyclic peptides of protein N of SARS-CoV Urbani (Rabbit serum looped peptides) [1]	Binding of serum 1a to linear peptides of protein N of SARS-CoV Urbani [3]	Binding of serum 1a to looped/cyclic peptides of protein N of SARS-CoV Urbani [3]	Binding of serum 1b to linear peptides of protein N of SARS-CoV Urbani [3]	Binding of serum 1b to looped/cyclic peptides of protein N of SARS-CoV Urbani [3]	Binding of serum 2 to linear peptides of protein N of SARS-CoV Urbani [3]	Binding of serum 2 to looped/cyclic peptides of protein N of SARS-CoV Urbani [3]	Binding of serum 6 to linear peptides of protein N of SARS-CoV Urbani [3]	Binding of serum 6 to looped/cyclic peptides of protein N of SARS-CoV Urbani [3]	Binding of serum 37 to linear peptides of protein N of SARS-CoV Urbani [3]	Binding of serum 37 to looped/cyclic peptides of protein N of SARS-CoV Urbani [3]	Binding of serum 62 to linear peptides of protein N of SARS-CoV Urbani [3]	Binding of serum 62 to looped/cyclic peptides of protein N of SARS-CoV Urbani [3]	Binding of serum London to linear peptides of protein N of SARS-CoV Urbani [3]	Binding of serum London to looped/cyclic peptides of protein N of SARS-CoV Urbani [3]	Binding of serum SARS-green to linear peptides of protein N of SARS-CoV Urbani [3]	Binding of serum SARS-green to looped/cyclic peptides of protein N of SARS-CoV Urbani [3]	Binding of serum SARS-yellow to linear peptides of protein N of SARS-CoV Urbani [3]	Binding of serum SARS-yellow to looped/cyclic peptides of protein N of SARS-CoV Urbani [3]	also measured
TNSGPDDQIGYYRRA	0.2	0.5	0.3	0.5	0.2	0.4	0.2	0.5	0.2	0.3	0.7	0.9	0.7	0.8	0.5	0.6	0.4	0.6	0.6	0.7	Binding of Control Serum Blood-Bank to Looped peptides [2]: 0.7; Binding of Control serum Blood-bank to linear peptides [2]: 1.2; Binding of Control serum LUMC to linear peptides [2]: 0.9; Binding of Control serum LUMC to looped peptides [2]: 0.9; Binding of antibody 03-018 to linear peptides of the N protein of SARS-CoV Urbani [4]: 0.1; Binding of antibody 03-018 to looped/cyclic peptides of the N protein of SARS-CoV Urbani [4]: 0.2
TPKDHIGTRNPNNNA	0.1	0.4	0.3	0.3	0.1	0.3	0.3	0.3	0.2	0.2	0.9	0.5	0.8	0.3	0.5	0.3	0.4	0.3	0.7	0.3	Binding of Control Serum Blood-Bank to Looped peptides [2]: 0.5; Binding of Control serum Blood-bank to linear peptides [2]: 0.9; Binding of Control serum LUMC to linear peptides [2]: 0.9; Binding of Control serum LUMC to looped peptides [2]: 0.6; Binding of antibody 03-018 to linear peptides of the N protein of SARS-CoV Urbani [4]: 0.1; Binding of antibody 03-018 to looped/cyclic peptides of the N protein of SARS-CoV Urbani [4]: 0.2
TPSGTWLTYHGAIKL	0.1	0.4	0.2	0.4	0.1	0.2	0.2	0.4	0.2	0.2	0.7	0.8	0.6	0.8	0.7	0.5	0.3	0.3	0.5	0.4	Control Serum Blood-Bank Looped peptides [2]: 0.7; Control serum Blood-bank linear peptides [2]: 0.8; Control serum LUMC linear peptides [2]: 0.6; Control serum LUMC looped peptides [2]: 0.5; Binding of antibody 03-018 to linear peptides of the N protein of SARS-CoV Urbani [4]: 0.1; Binding of antibody 03-018 to looped/cyclic peptides of the N protein of SARS-CoV Urbani [4]: 0.2
